Assay results: patent US20120129842A1, “BISTHIAZOLE INHIBITORS OF PRO-MATRIX METALLOPROTEINASE ACTIVATION” (priority 2010, published 2012)

Key:
proMMP9 = target: T1, proMMP9 (Homo sapiens, UniProt P14780); test: Activation of proMMP9 by human fetal lung fibroblast (HFL-1) cultures (Western blot); type: cell-based
T1 construct: host or cells: HFL-1 human fetal lung fibroblasts, TNFα plus human neutrophil elastase
Experimental: Activation of proMMP9 by Human Fetal Lung Fibroblast Cultures Example 64 was assessed additionally for ability to block the maturation of proMMP9 to active MMP9 in cultures of human fetal lung fibroblasts (HFL-1, American Type Culture Collection #CCL-153). Unlike rat synoviocytes, HFL-1 cells were unable to process proMMP9 to the active form without addition of neutrophil elastase. […] Rather, the function of elastase in this assay may be to inactivate tissue inhibitors of matrix metalloproteinases (TIMPs) that repress endogenous pathways of MMP9 activation (Am J Respir Grit Care Med; 1999; 159:1138-46).
HLF-1 were maintained in monolayer culture in DMEM with 10% FCS and were used between passage numbers 5-15. HLF-1 were embedded in collagen gels as described for rat SCW synoviocytes (vida supra). Half mL gels containing 0.4 million cells were dislodged into wells of 12 well Costar plates containing 1 mL/well of DMEM adjusted to contain 0.05% BSA and 100 ng/mL human TNFα (R&D Systems Cat #210-TA/CF). After overnight culture (37° C. and 5% CO2) wells were adjusted to contain an additional 0.5 mL of DMEM containing 0.05% BSA and with or without 13.2 μM Example 64 (final concentration was 3.3 μM Example 64). Next, cultures were adjusted to contain 30 nM human elastase (Innovative Research). The plates were cultured an additional 72 hrs, at which time MMP9 secreted into the conditioned media was bound to gelatin-sepharose and evaluated by Western blot analysis as described for the rat synoviocyte cultures (vida supra). mAb-51/82 detected three forms of MMP9 in HFL-1 cultures.
A second experiment was performed to determine if the 80 kD form was mature active MMP9 and to determine the potency of Example 64 as an inhibitor of MMP9 maturation in this assay. HFL-1 cells embedded in collagen gels were cultured as described above in the presence of TNFα overnight and the cultures were then adjusted to contain 30 nM elastase and graded concentrations of Example 64 for an additional 72 hrs at which time MMP9 secreted into the conditioned media was bound to gelatin-sepharose and evaluated by Western blot analysis for active MMP9 using pAb-1246 raised against the N-terminal neoepitope of active MMP9 (Table 5). In the absence of Example 64, pAb-1246 readily detected MMP9 with an electrophoretic mobility of approximately 80 kD. […] Inhibition occurred over a dose range with an IC50 of approximately 0.3 μM Example 64.

[1] = target: T2, MMP9 mediated gelatinase activity (Rattus norvegicus, UniProt P50282); test: Liver in situ zymography of SCW-induced rats dosed with compound; type: in vivo; conditions: for Intensity (RLU × 10^6) Rat 1 / Intensity (RLU × 10^6) Rat 2 / Intensity (RLU × 10^6) Rat 3 / Intensity (RLU × 10^6) Mean: Day 25-28, liver; for Intensity (RLU × 10^6) Mean: n=3
T2 construct: from tissue; host or cells: liver cryosections of female Lewis rats
Description: In situ zymography provides an alternative approach to assess active MMP9 in tissues (Frederiks). Tissue sections are overlain with fluorescene-conjugated gelatin wherein the conjugation is sufficiently dense to cause the fluorescene to be dye-quenched (DQ). Proteolytic degradation of the DQ-gelatin releases the fluorescene from the quenching effect giving rise to bright green fluorescence at the site of degradation. Because in situ zymography requires the use of frozen sections, calcified tissues are problematic. However, an additional feature of the SCW arthritis model is the development of hepatic granulomatous disease (J Immunol; 1986; 137:2199-2209), and MMP9 reportedly plays a role in macrophage recruitment in the granulomas response to mycobacteria (Infect Immun; 2006; 74:6135-6144). Consequently, granulomatous livers from SCW-treated rats were assessed for active MMP9 by in situ zymography.
As described above, Female Lewis (LEW/N) rats, 5-6 weeks of age (80-100 g) were injected (i.p.) with saline or SCW PG-PS. On day 28, when the granulomatous response was well established, animals were sacrificed and livers were frozen in OCT cryo-sectioning medium and 10 μm sections were cut on a Cryome HM 500 M cryotome and mounted on glass microscope slides. Sections were air dried briefly. MMP9 was confirmed as the source of the gelatinase activity in the liver by treating liver sections with monoclonal antibodies directed against the active site of the two major gelatinases MMP9 and MMP2. Liver sections overlain with 50 μL of 100 μg/mL neutralizing mouse monoclonal antibodies directed against MMP9 (Calbiochem, clone 6-6B), or MMP2 (Millipore, clone CA-4001), or with PBS for 1 hr at room temperature. Tissues were rinsed once with PBS, blotted, and briefly air dried and then overlain with DQ-gelatin (Invitrogen) dissolved to 1 mg/mL in deionized water and then diluted 1:10 in 1% wt/vol low gelling point agarose type VII (Sigma) in PBS. The sections were covered with coverslips, incubated in the dark at room temperature for 20 min, and imaged on an Olympus IX80 inverted microscope fitted with fluorescence optics, using SlideBook™ imaging software (Intelligent Imaging Innovations, Inc., Philadelphia, Pa.; version 5.0). Fluorescence intensity was determined (Table 8). When compared to a saline-treated rat, gelatinase activity was abundantly expressed in granulomatous liver sections obtained from a rat with SCW arthritis.
Next, liver in situ zymography was used to assess the relative presence of active MMP9 in rats dosed with vehicle vs. Example 64. Female Lewis (LEW/N) rats, 5-6 weeks of age (80-100 g) were injected (i.p.) with saline or SCW PG-PS. Commencing on day 25, randomized groups of rats (n=3 rats/group) received vehicle or 20 or 50 mg/kg Example 64 BID by oral gavage. Vehicle consisted of an aqueous mixture containing 2% (v:v) N-methylpyrrolidone, 5% (v:v) glycerine, and 20% (w:v) captisol. Treatment continued daily through the morning of day 28. Four hrs after the AM dose on day 28, rats were sacrificed and livers assessed for active MMP9 by in situ zymography (Table 9). Gelatinase activity was increased markedly in SCW-induced rats, but activity was reduced by approximately 80% in animals treated with 50 mg/kg Example 64.

T1 sequence (P14780 20-707 limits assumed): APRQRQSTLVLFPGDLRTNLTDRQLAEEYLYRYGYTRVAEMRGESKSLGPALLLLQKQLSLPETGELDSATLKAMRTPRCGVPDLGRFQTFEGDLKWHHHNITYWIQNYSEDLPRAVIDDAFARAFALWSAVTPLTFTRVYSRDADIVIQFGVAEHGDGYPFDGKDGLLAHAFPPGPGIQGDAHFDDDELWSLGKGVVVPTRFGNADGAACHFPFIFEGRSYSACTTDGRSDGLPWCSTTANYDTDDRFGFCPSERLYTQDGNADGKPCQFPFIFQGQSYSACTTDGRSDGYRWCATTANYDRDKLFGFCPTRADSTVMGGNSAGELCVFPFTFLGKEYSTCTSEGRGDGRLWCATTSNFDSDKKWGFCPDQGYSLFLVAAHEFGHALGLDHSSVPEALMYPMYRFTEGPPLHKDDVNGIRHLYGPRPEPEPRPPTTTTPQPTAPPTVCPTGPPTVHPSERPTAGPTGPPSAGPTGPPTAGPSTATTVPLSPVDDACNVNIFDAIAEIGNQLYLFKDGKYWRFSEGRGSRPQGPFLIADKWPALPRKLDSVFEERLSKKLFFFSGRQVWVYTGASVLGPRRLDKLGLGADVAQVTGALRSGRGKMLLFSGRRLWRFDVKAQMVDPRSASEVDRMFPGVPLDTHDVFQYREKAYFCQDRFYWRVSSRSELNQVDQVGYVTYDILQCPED
T2 sequence (P50282 108-708): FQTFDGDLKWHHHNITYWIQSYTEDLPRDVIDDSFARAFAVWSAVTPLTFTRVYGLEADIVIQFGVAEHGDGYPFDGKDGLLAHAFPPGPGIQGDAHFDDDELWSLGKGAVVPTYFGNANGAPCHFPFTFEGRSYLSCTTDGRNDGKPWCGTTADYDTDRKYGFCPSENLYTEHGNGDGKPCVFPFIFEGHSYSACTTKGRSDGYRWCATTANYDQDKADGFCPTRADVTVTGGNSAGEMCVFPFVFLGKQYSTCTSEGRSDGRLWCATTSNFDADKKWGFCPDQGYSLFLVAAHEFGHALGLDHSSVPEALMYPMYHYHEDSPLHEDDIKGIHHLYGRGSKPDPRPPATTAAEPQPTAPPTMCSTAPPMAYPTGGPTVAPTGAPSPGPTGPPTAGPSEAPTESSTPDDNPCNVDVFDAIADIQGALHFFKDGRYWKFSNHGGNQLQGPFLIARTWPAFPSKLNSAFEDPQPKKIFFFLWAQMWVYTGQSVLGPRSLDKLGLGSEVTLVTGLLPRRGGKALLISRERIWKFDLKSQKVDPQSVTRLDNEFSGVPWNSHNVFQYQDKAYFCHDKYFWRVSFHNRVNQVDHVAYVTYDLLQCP

Cc1nc(C)c(-c2csc(Nc3cc(S(N)(=O)=O)ccc3OC(C)C)n2)s1 [Example 64, 3-(2′,4′-Dimethyl-[4,5′]bithiazolyl-2-ylamino)-4-isopropoxy-benzenesulfonamide.HBr]
Signal (INT*mm^2) Total (proMMP9; 3.3 μM, HFL-1, mAb-L51/82, 30 nM elastase, 72 hrs): 91346 INT*mm^2 | inhibition at 0.12 µM (proMMP9; HFL1, 0.12 μM, HFL-1, 80 kD band, pAb-1246): 0% | inhibition at 0.37 µM (proMMP9; HFL1, 0.37 μM, HFL-1, 80 kD band, pAb-1246): 73% | inhibition at 1.1 µM (proMMP9; HFL1, 1.1 μM, HFL-1, 80 kD band, pAb-1246): 99% | inhibition at 3.3 µM (proMMP9; HFL1, 3.3 μM, HFL-1, 80 kD band, pAb-1246): 100% | inhibition at 10 µM (proMMP9; HFL1, 10 μM, HFL-1, 80 kD band, pAb-1246): 100% | Intensity (RLU × 10^6) Rat 1 ([1]; 20 mg/kg BID oral): 43.0 RLU × 10^6 | Intensity (RLU × 10^6) Rat 2 ([1]; 20 mg/kg BID oral): 69.0 RLU × 10^6 | Intensity (RLU × 10^6) Rat 3 ([1]; 20 mg/kg BID oral): 53.7 RLU × 10^6 | Intensity (RLU × 10^6) Mean ([1]; 20 mg/kg BID oral): 55.2 RLU × 10^6 | reduction of gelatinase activity in liver ([1]; 50 mg/kg BID oral, Day 25-28): approximately 80% | Intensity (RLU × 10^6) Rat 1 ([1]; 50 mg/kg BID oral): 3.2 RLU × 10^6 | Intensity (RLU × 10^6) Rat 2 ([1]; 50 mg/kg BID oral): 25.6 RLU × 10^6 | Intensity (RLU × 10^6) Rat 3 ([1]; 50 mg/kg BID oral): 4.5 RLU × 10^6 | Intensity (RLU × 10^6) Mean ([1]; 50 mg/kg BID oral): 11.1 RLU × 10^6
